In general, IC50 refers to the concentration that gives 50% inhibition.

The assay has as its target PIKFYVE (Homo sapiens, UniProt Q9Y2I7). Briefly: PIKFYVE assay (luciferase ADP-Glo kinase assay, Promega). Format: biochemical. On the procedure:
The activity of Compounds 1-20 was measured using a PIKFYVE assay (luciferase ADP-Glo kinase assay available from Promega Corp. of Madison, Wis.).
The activity of Compounds 39-90 was also measured using a PIKFYVE assay (luciferase ADP-Glo kinase assay available from Promega Corp. of Madison, Wis.).
The activity of Compounds 93-347 was also measured using a PIKFYVE assay (luciferase ADP-Glo kinase assay available from Promega Corp. of Madison, Wis.).
(In general: In ADP-Glo the light output rises with the ADP produced.)

Where a name gives a salt, the structure may show the parent alone.

Chain of PIKFYVE (Q9Y2I7 whole entry): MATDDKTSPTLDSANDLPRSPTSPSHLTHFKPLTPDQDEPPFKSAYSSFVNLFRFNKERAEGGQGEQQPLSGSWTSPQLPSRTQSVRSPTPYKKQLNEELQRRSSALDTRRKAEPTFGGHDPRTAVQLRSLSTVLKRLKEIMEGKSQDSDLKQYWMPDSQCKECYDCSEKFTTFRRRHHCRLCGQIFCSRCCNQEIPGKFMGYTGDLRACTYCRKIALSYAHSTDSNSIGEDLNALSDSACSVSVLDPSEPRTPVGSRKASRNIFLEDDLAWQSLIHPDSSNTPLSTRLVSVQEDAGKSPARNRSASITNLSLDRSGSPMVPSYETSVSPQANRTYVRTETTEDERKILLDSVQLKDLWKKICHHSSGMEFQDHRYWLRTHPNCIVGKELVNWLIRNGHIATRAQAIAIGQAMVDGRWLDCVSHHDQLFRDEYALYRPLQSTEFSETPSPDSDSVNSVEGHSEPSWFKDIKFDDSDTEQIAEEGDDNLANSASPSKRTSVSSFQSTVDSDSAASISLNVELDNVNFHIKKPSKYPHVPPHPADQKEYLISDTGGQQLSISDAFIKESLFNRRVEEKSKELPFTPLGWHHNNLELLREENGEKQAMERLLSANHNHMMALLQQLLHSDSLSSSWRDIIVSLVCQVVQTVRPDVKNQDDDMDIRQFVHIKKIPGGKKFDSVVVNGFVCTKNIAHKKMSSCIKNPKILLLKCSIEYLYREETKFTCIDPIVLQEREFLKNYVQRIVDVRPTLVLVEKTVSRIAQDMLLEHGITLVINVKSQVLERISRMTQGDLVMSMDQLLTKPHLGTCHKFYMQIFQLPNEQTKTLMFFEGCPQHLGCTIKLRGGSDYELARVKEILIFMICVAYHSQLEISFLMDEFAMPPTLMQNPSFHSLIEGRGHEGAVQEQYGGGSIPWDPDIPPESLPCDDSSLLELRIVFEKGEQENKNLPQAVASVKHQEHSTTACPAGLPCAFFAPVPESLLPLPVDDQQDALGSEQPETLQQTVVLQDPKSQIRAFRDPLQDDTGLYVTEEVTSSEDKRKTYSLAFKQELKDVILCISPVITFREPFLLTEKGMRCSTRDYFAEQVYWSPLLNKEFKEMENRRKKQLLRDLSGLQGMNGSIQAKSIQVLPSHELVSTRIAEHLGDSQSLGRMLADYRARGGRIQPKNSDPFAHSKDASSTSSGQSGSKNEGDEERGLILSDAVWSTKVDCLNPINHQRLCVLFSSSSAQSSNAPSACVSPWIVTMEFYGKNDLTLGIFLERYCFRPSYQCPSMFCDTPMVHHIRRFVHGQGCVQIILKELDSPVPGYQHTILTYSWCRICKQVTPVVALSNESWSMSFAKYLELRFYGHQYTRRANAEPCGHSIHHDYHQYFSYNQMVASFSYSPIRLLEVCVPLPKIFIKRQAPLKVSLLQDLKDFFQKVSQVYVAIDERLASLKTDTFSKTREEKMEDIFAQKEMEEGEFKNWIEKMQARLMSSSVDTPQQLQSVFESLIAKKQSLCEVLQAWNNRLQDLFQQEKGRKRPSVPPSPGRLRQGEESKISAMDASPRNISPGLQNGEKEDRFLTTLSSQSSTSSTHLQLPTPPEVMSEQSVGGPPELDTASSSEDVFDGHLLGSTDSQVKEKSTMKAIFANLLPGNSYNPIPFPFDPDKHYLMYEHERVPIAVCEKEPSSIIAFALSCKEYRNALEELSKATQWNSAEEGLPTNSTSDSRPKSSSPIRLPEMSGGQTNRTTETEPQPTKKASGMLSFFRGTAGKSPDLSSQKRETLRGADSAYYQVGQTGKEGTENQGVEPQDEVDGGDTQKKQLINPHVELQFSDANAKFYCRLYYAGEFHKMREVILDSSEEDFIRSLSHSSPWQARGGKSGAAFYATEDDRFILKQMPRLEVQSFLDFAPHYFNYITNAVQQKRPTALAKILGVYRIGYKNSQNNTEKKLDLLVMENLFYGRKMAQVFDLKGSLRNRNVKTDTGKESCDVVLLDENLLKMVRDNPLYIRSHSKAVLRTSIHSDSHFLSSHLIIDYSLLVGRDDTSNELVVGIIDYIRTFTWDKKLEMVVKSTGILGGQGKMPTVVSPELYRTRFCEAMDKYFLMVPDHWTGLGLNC

In the case of `Cc1cccc(-c2ccn(-c3nc(OCCc4cnn(C)c4)cc(N4CCOCC4)n3)n2)c1` [Compound 251, 4-(6-(2-(1-methyl-1H-pyrazol-4-yl)ethoxy)-2-(3-(m-tolyl)-1H-pyrazol-1-yl)pyrimidin-4-yl)morpholine], for the setting “Table 3”, the IC50 fell in the range of 3 to 10 nM.

On to `CO[C@@H](CO)c1nc(N2CCOCC2)cc(-n2ccc(-c3cnc4ccccn34)n2)n1` [Compound 283, (R)-2-(4-(3-(imidazo[1,2-a]pyridin-3-yl)-1H-pyrazol-1-yl)-6-morpholinopyrimidin-2-yl)-2-methoxyethan-1-ol], for which the 50% inhibitory concentration (IC50) (Table 3) was 100 to 5000 nM. As for `CO[C@@H](CO)c1nc(N2CCOCC2)cc(-n2nc(-c3c[nH]c4cnccc34)cc2C)n1` [Compound 287, (R)-2-methoxy-2-(4-(5-methyl-3-(1H-pyrrolo[2,3-c]pyridin-3-yl)-1H-pyrazol-1-yl)-6-morpholinopyrimidin-2-yl)ethan-1-ol], the IC50 (Table 3) lay in the range of 100 to 5000 nM. On to `CN(c1nc(OCCc2cnn(C)c2)cc(N2CCOCC2)n1)c1ncc2ccccc2n1` [Compound 252, N-methyl-N-(4-(2-(1-methyl-1H-pyrazol-4-yl)ethoxy)-6-morpholinopyrimidin-2-yl)quinazolin-2-amine], for which the IC50 (Table 3) was over 5000 nM. The same measure, in the same setting: under `Cc1cccc(CC(=O)Nc2nc(OCCc3cnn(C)c3)cc(N3CCOCC3)n2)c1` [Compound 248, N-(4-(2-(1-methyl-1H-pyrazol-4-yl)ethoxy)-6-morpholinopyrimidin-2-yl)-2-(m-tolyl)acetamide] stands over 5000 nM. Regarding `COCCSc1cc(-n2ccc(-c3cccc(C)c3)n2)nc(OCC2CCCO2)n1` (centres unmarked) [Compound 18, 4-((2-methoxyethyl)thio)-2-((tetrahydrofuran-2-yl)methoxy)-6-(3-(m-tolyl)-1H-pyrazol-1-yl)pyrimidine], the IC50 (Table 1) lay within 1000 to 10000 nM.

As to `CO[C@H](CO)c1nc(N2CCOCC2)cc(-n2ccc(-c3cc(C)ccc3C)n2)n1` (single isomer, unassigned) [Compound 343], the 50% inhibitory concentration (IC50) (Table 3) is 10 to 100 nM.

Where the note is “Table 3”, `Cc1cccc(-c2ccn(-c3nc4c(c(N5CCOCC5)n3)CN(CCc3ccn(C)n3)C4)n2)c1` [Compound 239, 4-(6-(2-(1-methyl-1H-pyrazol-3-yl)ethyl)-2-(3-(m-tolyl)-1H-pyrazol-1-yl)-6,7-dihydro-5H-pyrrolo[3,4-d]pyrimidin-4-yl)morpholine hydrochloride] gave an IC50 of 10 to 100 nM. Consider `CN(C)Cc1cc(-c2ccccc2)nn1-c1cc(N2CCOCC2)nc(OCC2(C)COC2)n1` [Compound 207, N,N-dimethyl-1-(1-(2-((3-methyloxetan-3-yl)methoxy)-6-morpholinopyrimidin-4-yl)-3-phenyl-1H-pyrazol-5-yl)methanamine], for which the IC50 (Table 3) was in the range of 10 to 100 nM. Same read-out and setting: under `CO[C@@H](CO)c1nc(N2CCOCC2)cc(-n2ccc(-c3cccc4c3COC4)n2)n1` [Compound 271, (R)-2-(4-(3-(1,3-dihydroisobenzofuran-4-yl)-1H-pyrazol-1-yl)-6-morpholinopyrimidin-2-yl)-2-methoxyethan-1-ol] stands 100 to 5000 nM. `Cc1cccc(-c2ccn(-c3nc(NCCc4cnccn4)cc(N4CCOCC4)n3)n2)c1` [Compound 47] showed a concentration for half-maximal inhibition (IC50) (Table 2) of 5 to 100 nM. Under “Table 3”, `CO[C@H](CO)c1nc(N2CCOCC2)cc(-n2nc(-c3c[nH]c4ncccc34)cc2C)n1` [Compound 284, (S)-2-methoxy-2-(4-(5-methyl-3-(1H-pyrrolo[2,3-b]pyridin-3-yl)-1H-pyrazol-1-yl)-6-morpholinopyrimidin-2-yl)ethan-1-ol] gave a half-inhibitory concentration (IC50) of 10 to 100 nM. Take `COCC(O)c1nc(N2CCOCC2)cc(-n2ccc(-c3cccc(C)c3)n2)n1` (centres unmarked) [Compound 49]: the half-inhibitory concentration (IC50) (Table 2) was in the range of 5 to 100 nM. The compound `CO[C@@H](CO)c1nc(N2CCOCC2)cc(-n2nc(-c3c[nH]c4ccncc34)cc2C)n1` [Compound 289, (R)-2-methoxy-2-(4-(5-methyl-3-(1H-pyrrolo[3,2-c]pyridin-3-yl)-1H-pyrazol-1-yl)-6-morpholinopyrimidin-2-yl)ethan-1-ol] registered a half-maximal inhibitory concentration (IC50) (Table 3) of 100 to 5000 nM. Regarding `CC(C)(C)c1ccn(-c2cc(N3CCOCC3)nc(OCC(O)CO)n2)n1` (centres unmarked) [Compound 51], the IC50 (Table 2) lay in the range of 1000 to 10000 nM.

With `Cc1cccc(-c2ccn(-c3cc(N4CCOCC4)nc(NC(=O)Cc4cnn(C)c4)n3)n2)c1` [Compound 65], the IC50 (Table 2) was under 5 nM. In turn, `Cc1cccc(-c2ccn(-c3cc(N4CC[C@H]5OCC[C@H]54)nc(C(O)CO)n3)n2)c1` (some centres unmarked) [Compound 48] returned a half-inhibitory concentration (IC50) (Table 2) of 101 to 1000 nM. The compound `Cc1cccc(-c2ccn(-c3cc(N4CCOCC4)nc(N(C)CCc4ccccn4)n3)n2)c1` [Compound 91, N-methyl-4-morpholino-N-(2-(pyridin-2-yl)ethyl)-6-(3-(m-tolyl)-1H-pyrazol-1-yl)pyrimidin-2-amine] yielded an IC50 (Table 3) of 3 to 10 nM.

For the setting “Table 3”, `Cc1cccc(-c2ccn(-c3cc(N4CCOCC4)c4c(ccn4C)n3)n2)c1` [Compound 333, 4-(1-methyl-5-(3-(m-tolyl)-1H-pyrazol-1-yl)-1H-pyrrolo[3,2-b]pyridin-7-yl)morpholine] registered an IC50 of 100 to 5000 nM. Turning to `CO[C@H](CO)c1nc(N2CCOCC2)cc(-n2nc(-c3ccccc3)cc2C2CC2)n1` (single isomer, unassigned) [Compound 256], the 50% inhibitory concentration (IC50) (Table 3) lay in the range of 10 to 100 nM. The same measure, in the same setting: under `Cc1cccc(CC(=O)Nc2cc(N3CCOCC3)nc(OCCc3cnn(C)c3)n2)c1` [Compound 249, N-(2-(2-(1-methyl-1H-pyrazol-4-yl)ethoxy)-6-morpholinopyrimidin-4-yl)-2-(m-tolyl)acetamide] stands 100 to 5000 nM; under `Cn1cc(CCOc2nc(N3CCOCC3)cc(-n3ccc(-c4cccc5c4OCCN5)n3)n2)cn1` [Compound 244, 8-(1-(2-(2-(1-methyl-1H-pyrazol-4-yl)ethoxy)-6-morpholinopyrimidin-4-yl)-1H-pyrazol-3-yl)-3,4-dihydro-2H-benzo[b][1,4]oxazine], 10 to 100 nM; under `CO[C@H](CO)c1nc(N2CCOCC2)cc(-n2ccc(-c3cccc4c3COC4)n2)n1` [Compound 270, (S)-2-(4-(3-(1,3-dihydroisobenzofuran-4-yl)-1H-pyrazol-1-yl)-6-morpholinopyrimidin-2-yl)-2-methoxyethan-1-ol], 100 to 5000 nM.

In turn, `Cc1cccc(-c2ccn(-c3cc(N4CCOCC4)nc(OCCc4ccccn4)n3)n2)c1` [Compound 92, 4-(2-(2-(pyridin-2-yl)ethoxy)-6-(3-(m-tolyl)-1H-pyrazol-1-yl)pyrimidin-4-yl)morpholine] showed a 50% inhibitory concentration (IC50) (Table 3) of 3 to 10 nM.

`Cc1cccc(-c2ccn(-c3cc(N4CCOCC4)nc(Cc4ccccc4)n3)n2)c1` [Compound 42] yielded an IC50 (Table 2) of 101 to 1000 nM. Still for that read-out and setting: under `Fc1ccc(-c2cnn(-c3cc(N4CC[C@H]5OCC[C@H]54)nc(OCCc4ccccn4)n3)c2)cc1` [Compound 41] stands 1000 to 10000 nM.

With `Cc1cc(-c2ccccc2)nn1-c1nc2c(c(N3CCOCC3)n1)CN(CCc1ccn(C)n1)C2` [Compound 240, 4-(6-(2-(1-methyl-1H-pyrazol-3-yl)ethyl)-2-(5-methyl-3-phenyl-1H-pyrazol-1-yl)-6,7-dihydro-5H-pyrrolo[3,4-d]pyrimidin-4-yl)morpholine], where the note is “Table 3”, the IC50 lay within 100 to 5000 nM.

`CO[C@@H](CO)c1nc(N2CCOCC2)cc(-n2nc(-c3ccccc3)cc2C2CC2)n1` (single isomer, unassigned) [Compound 257] came in with an IC50 (Table 3) of 10 to 100 nM.

Where the note is “Table 3”, `CO[C@H](CO)c1nc(N2CCOCC2)cc(-n2nc(-c3c[nH]c4ccncc34)cc2C)n1` [Compound 288, (S)-2-methoxy-2-(4-(5-methyl-3-(1H-pyrrolo[3,2-c]pyridin-3-yl)-1H-pyrazol-1-yl)-6-morpholinopyrimidin-2-yl)ethan-1-ol] returned an IC50 of 100 to 5000 nM. On the same count and under the same terms, under `CCc1cc(-c2ccccc2)nn1-c1cc(N2CCOCC2)nc([C@H](CO)OC)n1` [Compound 295, (R)-2-(4-(5-ethyl-3-phenyl-1H-pyrazol-1-yl)-6-morpholinopyrimidin-2-yl)-2-methoxyethan-1-ol] stands 10 to 100 nM. The compound `COC(CO)c1nc(N2CCOCC2)cc(-n2ccc(-c3cccc(C)c3)n2)n1` (centres unmarked) [Compound 50] yielded an IC50 (Table 2) of under 5 nM.

In the case of `CO[C@@H](CO)c1nc(N2CCOCC2)cc(-n2nc(-c3cnc4ccccn34)cc2C)n1` [Compound 281, (R)-2-(4-(3-(imidazo[1,2-a]pyridin-3-yl)-5-methyl-1H-pyrazol-1-yl)-6-morpholinopyrimidin-2-yl)-2-methoxyethan-1-ol], under “Table 3”, the 50% inhibitory concentration (IC50) is 100 to 5000 nM. Turning to `OCC(O)COc1nc(N2CCOCC2)cc(-n2ncc3ccccc32)n1` (centres unmarked) [Compound 53], the IC50 (Table 2) fell in the range of 101 to 1000 nM. In the case of `CO[C@H](CO)c1nc(N2CCOCC2)cc(-n2nc(-c3c[nH]c4cnccc34)cc2C)n1` [Compound 286, (S)-2-methoxy-2-(4-(5-methyl-3-(1H-pyrrolo[2,3-c]pyridin-3-yl)-1H-pyrazol-1-yl)-6-morpholinopyrimidin-2-yl)ethan-1-ol], the 50% inhibitory concentration (IC50) (Table 3) is 100 to 5000 nM.

For `CO[C@@H](CO)c1nc(N2CCOCC2)cc(-n2ccc(-c3cccc4c3OCO4)n2)n1` [Compound 267, (R)-2-(4-(3-(benzo[d][1,3]dioxol-4-yl)-1H-pyrazol-1-yl)-6-morpholinopyrimidin-2-yl)-2-methoxyethan-1-ol], the concentration for half-maximal inhibition (IC50) (Table 3) was in the range of 10 to 100 nM. In turn, `OCC(O)COc1nc(N2CCOCC2)cc(-n2cc3ccccc3n2)n1` (centres unmarked) [Compound 52] yielded a half-inhibitory concentration (IC50) (Table 2) of 101 to 1000 nM. `Cc1cccc(CC(=O)N(C)c2nc(OCCc3cnn(C)c3)cc(N3CCOCC3)n2)c1` [Compound 250, N-methyl-N-(4-(2-(1-methyl-1H-pyrazol-4-yl)ethoxy)-6-morpholinopyrimidin-2-yl)-2-(m-tolyl)acetamide]: the IC50 (Table 3) was over 5000 nM. Take `Cc1cccc(-c2cn(C)n(-c3cc(N4CCOCC4)nc(OCCc4cnn(C)c4)n3)c2=O)c1` [Compound 247, 1-methyl-2-(2-(2-(1-methyl-1H-pyrazol-4-yl)ethoxy)-6-morpholinopyrimidin-4-yl)-4-(m-tolyl)-1,2-dihydro-3H-pyrazol-3-one]: where the note is “Table 3”, the concentration for half-maximal inhibition (IC50) was in the range of 100 to 5000 nM.

The values are drawn from patent publication US20230135152A1 (ACURASTEM INCORPORATED, priority 2020, published 2023).
